Source: US8471005B2 (Cephalon, Inc., priority 2008, dated 2013)
Read-outs that look alike come from different tables or passages of the source.

Legend:
[1] = target: T1, ALK (Homo sapiens, UniProt Q9UM73); assay: ALK Kinase Assay (ELISA/TRF, PLC-γ substrate); type: biochemical; conditions: read-out: ALK Potency
T1 construct: host or cells: baculovirus expression system
Summary of the method: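 Read-out is time-resolved fluorescence from a Eu-N1-labeled PT66 antibody that binds phosphorylated PLC-γ, the substrate coated at 10 μg/mL in TBS. ALK at 30 ng/ml starts the reaction, which runs 15 minutes at 37° C.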

[2] = target: T2, JAK2 (Homo sapiens, UniProt O60674); assay: Recombinant Human JAK2 Kinase Assay (TRF); type: biochemical; conditions: read-out: JAK2 Potency
T2 construct: host or cells: baculovirus expression system
T2 sequence (O60674 whole entry): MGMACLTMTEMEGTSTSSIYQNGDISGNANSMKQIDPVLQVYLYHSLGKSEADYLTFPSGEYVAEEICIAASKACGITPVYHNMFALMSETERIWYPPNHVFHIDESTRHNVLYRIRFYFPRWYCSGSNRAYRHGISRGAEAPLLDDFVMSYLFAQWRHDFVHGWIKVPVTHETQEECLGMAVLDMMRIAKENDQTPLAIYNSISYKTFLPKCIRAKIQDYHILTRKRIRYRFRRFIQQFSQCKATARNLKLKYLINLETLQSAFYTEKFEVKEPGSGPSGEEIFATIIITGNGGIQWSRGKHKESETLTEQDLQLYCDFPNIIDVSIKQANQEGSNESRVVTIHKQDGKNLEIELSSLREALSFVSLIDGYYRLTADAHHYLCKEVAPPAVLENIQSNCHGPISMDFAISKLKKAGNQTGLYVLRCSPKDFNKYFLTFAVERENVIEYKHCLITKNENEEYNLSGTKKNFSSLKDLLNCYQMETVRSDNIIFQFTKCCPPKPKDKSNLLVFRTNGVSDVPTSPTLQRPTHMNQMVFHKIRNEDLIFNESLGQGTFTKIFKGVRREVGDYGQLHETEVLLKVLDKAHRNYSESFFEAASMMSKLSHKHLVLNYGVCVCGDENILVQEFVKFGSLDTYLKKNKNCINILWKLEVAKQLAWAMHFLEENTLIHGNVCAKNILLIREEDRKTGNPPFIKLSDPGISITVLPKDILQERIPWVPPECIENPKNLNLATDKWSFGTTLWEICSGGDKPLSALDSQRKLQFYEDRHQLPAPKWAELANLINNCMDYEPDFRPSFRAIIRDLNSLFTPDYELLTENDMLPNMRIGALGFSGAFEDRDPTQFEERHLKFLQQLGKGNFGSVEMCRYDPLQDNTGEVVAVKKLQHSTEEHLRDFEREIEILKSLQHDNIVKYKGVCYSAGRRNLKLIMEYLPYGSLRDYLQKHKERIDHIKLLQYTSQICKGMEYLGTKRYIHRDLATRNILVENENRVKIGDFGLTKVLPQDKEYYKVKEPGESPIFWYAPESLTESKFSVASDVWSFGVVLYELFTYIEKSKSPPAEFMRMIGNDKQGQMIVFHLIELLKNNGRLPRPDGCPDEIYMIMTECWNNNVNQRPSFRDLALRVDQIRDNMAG
Summary of the method: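 Kinase activity of baculovirus-expressed JAK2 is followed on a surface-immobilised biotinylated peptide, with the reaction run for 20 min at room temperature in buffer containing 0.2 μM ATP and manganese. Phosphorylation is read with Eu-N1 PY100 antibody.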

[3] = ALK kinase inhibition, 1 μM ATP
[4] = JAK2 kinase inhibition, 0.2 μM ATP

T1 sequence (Q9UM73 19-1620): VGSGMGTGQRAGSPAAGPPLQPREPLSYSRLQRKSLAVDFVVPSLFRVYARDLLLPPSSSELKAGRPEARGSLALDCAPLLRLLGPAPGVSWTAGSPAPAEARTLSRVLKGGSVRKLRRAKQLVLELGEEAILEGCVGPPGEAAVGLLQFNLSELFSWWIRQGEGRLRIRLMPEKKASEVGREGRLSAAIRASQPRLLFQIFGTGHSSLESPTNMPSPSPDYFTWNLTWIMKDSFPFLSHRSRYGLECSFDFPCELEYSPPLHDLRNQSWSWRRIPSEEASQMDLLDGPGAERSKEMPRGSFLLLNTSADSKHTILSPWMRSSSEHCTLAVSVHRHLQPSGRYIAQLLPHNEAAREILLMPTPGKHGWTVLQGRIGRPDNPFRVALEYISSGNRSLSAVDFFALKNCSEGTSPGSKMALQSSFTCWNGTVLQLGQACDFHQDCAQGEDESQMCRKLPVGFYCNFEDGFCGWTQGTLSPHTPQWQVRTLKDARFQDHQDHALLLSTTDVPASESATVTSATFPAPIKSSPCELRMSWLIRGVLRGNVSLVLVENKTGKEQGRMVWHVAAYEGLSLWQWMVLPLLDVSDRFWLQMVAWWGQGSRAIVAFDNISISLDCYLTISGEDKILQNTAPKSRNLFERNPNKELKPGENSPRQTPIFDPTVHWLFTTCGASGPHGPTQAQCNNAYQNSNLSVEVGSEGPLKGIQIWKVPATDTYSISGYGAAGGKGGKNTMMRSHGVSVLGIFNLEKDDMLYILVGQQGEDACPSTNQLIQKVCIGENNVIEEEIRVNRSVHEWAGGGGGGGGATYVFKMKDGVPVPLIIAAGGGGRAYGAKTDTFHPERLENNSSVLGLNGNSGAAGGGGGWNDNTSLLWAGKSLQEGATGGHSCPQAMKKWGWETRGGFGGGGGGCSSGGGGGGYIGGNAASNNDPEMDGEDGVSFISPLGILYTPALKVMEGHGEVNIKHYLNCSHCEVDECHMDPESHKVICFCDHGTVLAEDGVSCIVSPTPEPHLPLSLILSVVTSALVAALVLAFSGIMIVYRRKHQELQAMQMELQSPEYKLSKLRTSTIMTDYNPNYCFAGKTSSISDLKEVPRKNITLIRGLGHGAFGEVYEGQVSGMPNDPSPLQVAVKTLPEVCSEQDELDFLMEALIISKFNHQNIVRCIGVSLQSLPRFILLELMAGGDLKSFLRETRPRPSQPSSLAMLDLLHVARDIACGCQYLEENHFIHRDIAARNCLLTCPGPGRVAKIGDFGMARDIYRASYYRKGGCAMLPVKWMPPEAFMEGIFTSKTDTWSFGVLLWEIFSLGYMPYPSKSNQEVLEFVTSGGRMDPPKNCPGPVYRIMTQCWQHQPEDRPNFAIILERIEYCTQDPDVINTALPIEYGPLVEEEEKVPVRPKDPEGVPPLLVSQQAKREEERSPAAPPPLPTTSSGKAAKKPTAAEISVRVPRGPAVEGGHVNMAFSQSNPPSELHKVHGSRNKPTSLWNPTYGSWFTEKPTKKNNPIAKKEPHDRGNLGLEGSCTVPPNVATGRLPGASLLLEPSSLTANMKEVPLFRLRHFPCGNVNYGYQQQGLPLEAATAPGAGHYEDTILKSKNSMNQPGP

IC50 [1, 3] | IC50 [2, 4] | IC50 ([1]; ALK Kinase Inhibition) | IC50 ([2]; JAK2 Kinase Inhibition) | Compound
 |  | 1000 to 10000 nM | < 100 nM | COc1ccc(-c2ccc3cnc(Nc4cccc(C5CNCCN5)c4)nn23)cn1 (centres unmarked) [Example 1566, [7-(6-Methoxy-pyridin-3-yl)-pyrrolo[2,1-f][1,2,4]triazin-2-yl]-(3-piperazin-2-yl-phenyl)-amine]
 |  | < 100 nM | 1000 to 10000 nM | CSc1cc(N2CCN(C[C@H](C)O)CC2)c(F)cc1Nc1ncc2ccc(-c3ccccc3N(C)S(C)(=O)=O)n2n1 [Example 1483, N-[2-(2-{5-Fluoro-4-[4-((S)-2-hydroxy-propyl)-piperazin-1-yl]-2-methylsulfanyl-phenylamino}-pyrrolo[2,1-f][1,2,4]triazin-7-yl)-phenyl]-N-methyl-methanesulfonamide]
100 to 1000 nM | < 100 nM |  |  | COc1ccccc1-c1ccc2cnc(Nc3ccc4c(c3)NC(=O)CC4)nn12 [Example 981, 7-[7-(2-Methoxy-phenyl)-pyrrolo[2,1-f][1,2,4]triazin-2-ylamino]-3,4-dihydro-1H-quinolin-2-one]
 |  | 100 to 1000 nM | < 100 nM | COc1ccc(Cl)cc1-c1ccc2cnc(Nc3ccc(C(=O)N4CCN(C)CC4)cc3)nn12 [Example 319, {4-[7-(5-Chloro-2-methoxy-phenyl)-pyrrolo[2,1-f][1,2,4]triazin-2-ylamino]-phenyl}-(4-methyl-piperazin-1-yl)-methanone]
100 to 1000 nM | < 100 nM |  |  | COc1ccccc1-c1ccc2cnc(Nc3ccc(Cl)c(OCC4CCCN4C)c3)nn12 (centres unmarked) [Example 1011, [4-Chloro-3-(1-methyl-pyrrolidin-2-ylmethoxy)-phenyl]-[7-(2-methoxy-phenyl)-pyrrolo[2,1-f][1,2,4]triazin-2-yl]-amine]
 |  | < 100 nM | 1000 to 10000 nM | COc1ccc(OC)c(-c2ccc3cnc(Nc4ccc(N5CCN(C[C@H](C)O)CC5)cc4OC)nn23)c1 [Example 1477, (S)-1-(4-{4-[7-(2,5-Dimethoxy-phenyl)-pyrrolo[2,1-f][1,2,4]triazin-2-ylamino]-3-methoxy-phenyl}-piperazin-1-yl)-propan-2-ol]
1000 to 10000 nM | 100 to 1000 nM |  |  | CN(c1ccccc1-c1ccc2cnc(OC3CCN(c4ccc(N)cc4)CC3)nn12)S(C)(=O)=O [Example 634, N-(2-{2-[1-(4-Amino-phenyl)-piperidin-4-yloxy]-pyrrolo[2,1-f][1,2,4]triazin-7-yl}-phenyl)-N-methyl-methanesulfonamide]
< 100 nM | 100 to 1000 nM |  |  | COc1cc(C2CCN(C(=O)C(C)(C)N)CC2)ccc1Nc1ncc2ccc(-c3ccccc3N(C)S(C)(=O)=O)n2n1 [Example 822, N-[2-(2-{4-[1-(2-Amino-2-methyl-propionyl)-piperidin-4-yl]-2-methoxy-phenylamino}-pyrrolo[2,1-f][1,2,4]triazin-7-yl)-phenyl]-N-methyl-methanesulfonamide]
1000 to 10000 nM | 1000 to 10000 nM |  |  | COc1cc(N2CCC(N3CCOCC3)CC2)ccc1Nc1ncc2ccc(-c3ccccc3S(C)(=O)=O)n2n1 [Example 540, [7-(2-Methanesulfonyl-phenyl)-pyrrolo[2,1-f][1,2,4]triazin-2-yl]-[2-methoxy-4-(4-morpholin-4-yl-piperidin-1-yl)-phenyl]-amine]

The remaining lines, values behind:

Compound | IC50 [1, 3] | IC50 [2, 4] | IC50 ([1]; ALK Kinase Inhibition) | IC50 ([2]; JAK2 Kinase Inhibition)
CC(C)(C)NS(=O)(=O)c1cccc(-c2ccc3cnc(Nc4ccc5c(c4)ncn5CCN4CCOCC4)nn23)c1 [Example 1325, N-tert-Butyl-3-{2-[1-(2-morpholin-4-yl-ethyl)-1H-benzimidazol-5-ylamino]-pyrrolo[2,1-f][1,2,4]triazin-7-yl}-benzenesulfonamide] | 100 to 1000 nM | < 100 nM |  | 
COc1cc(N2CCC(N3CCN(S(C)(=O)=O)CC3)CC2)ccc1Nc1ncc2ccc(-c3ccccc3OC)n2n1 [Example 535, {4-[4-(4-Methanesulfonyl-piperazin-1-yl)-piperidin-1-yl]-2-methoxy-phenyl}-[7-(2-methoxy-phenyl)-pyrrolo[2,1-f][1,2,4]triazin-2-yl]-amine] | < 100 nM | < 100 nM |  | 
COc1cc(N2CCC(N(C)C)CC2)ccc1Nc1ncc2ccc(-c3ccc(S(C)(=O)=O)cc3)n2n1 [Example 477, [4-(4-Dimethylamino-piperidin-1-yl)-2-methoxy-phenyl]-[7-(4-methanesulfonyl-phenyl)-pyrrolo[2,1-f][1,2,4]triazin-2-yl]-amine] | < 100 nM | < 100 nM |  | 
COc1ccccc1-c1ccc2cnc(Nc3ccc4[nH]ccc4c3)nn12 [Example 170, (1H-Indol-5-yl)-[7-(2-methoxy-phenyl)-pyrrolo[2,1-f][1,2,4]triazin-2-yl]-amine] |  |  | 1000 to 10000 nM | < 100 nM
CN1CCN(c2ccc(Nc3ncc4ccc(-c5ccc(S(C)(=O)=O)cc5)n4n3)cc2F)CC1 [Example 1437, [3-Fluoro-4-(4-methyl-piperazin-1-yl)-phenyl]-[7-(4-methanesulfonyl-phenyl)-pyrrolo[2,1-f][1,2,4]triazin-2-yl]-amine] |  |  | 100 to 1000 nM | < 100 nM
1-[7-(2-Methoxy-phenyl)-pyrrolo[2,1-f][1,2,4]triazin-2-yl]-1H-imidazo[4,5-c]pyridine [Example 322] |  |  | 1000 to 10000 nM | 100 to 1000 nM
4-[2-(4-Morpholin-4-yl-phenylamino)-pyrrolo[2,1-f][1,2,4]triazin-7-yl]-piperidine-1-carboxylic acid tert-butyl ester [Example 1128] | > 10000 nM | < 100 nM |  | 
CCN(CC)C1CCN(c2ccc(Nc3ncc4ccc(-c5ccccc5N(C)S(C)(=O)=O)n4n3)cc2)CC1 [Example 1204, N-(2-{2-[4-(4-Diethylamino-piperidin-1-yl)-phenylamino]-pyrrolo[2,1-f][1,2,4]triazin-7-yl}-phenyl)-N-methyl-methanesulfonamide] | < 100 nM | < 100 nM |  | 
CN1C(=O)Cc2cc(Nc3ncc4ccc(-c5ccccc5N(C)S(C)(=O)=O)n4n3)ccc21 [Example 375, N-Methyl-N-{2-[2-(1-methyl-2-oxo-2,3-dihydro-1H-indol-5-ylamino)-pyrrolo[2,1-f][1,2,4]triazin-7-yl]-phenyl}-methanesulfonamide] |  |  | 100 to 1000 nM | < 100 nM
N#CCCc1cccc(-c2ccc3cnc(Nc4ccc5c(c4)CCC(N4CCOCC4)CC5)nn23)c1 (centres unmarked) [Example 1148, 3-{3-[2-(7-Morpholin-4-yl-6,7,8,9-tetrahydro-5H-benzocyclohepten-2-ylamino)-pyrrolo[2,1-f][1,2,4]triazin-7-yl]-phenyl}-propionitrile] | < 100 nM | < 100 nM |  | 
CN1CCC(c2ccc(Nc3ncc4ccc(-c5ccn(C)n5)n4n3)cc2)CC1 [Example 954, [4-(1-Methyl-piperidin-4-yl)-phenyl]-[7-(1-methyl-1H-pyrazol-3-yl)-pyrrolo[2,1-f][1,2,4]triazin-2-yl]-amine] | 100 to 1000 nM | < 100 nM |  | 
[7-(6-Methoxy-pyridin-3-yl)-pyrrolo[2,1-f][1,2,4]triazin-2-yl]-(2-methyl-1,2,3,4-tetrahydro-isoquinolin-7-yl)-amine [Example 985] | < 100 nM | < 100 nM |  | 
COc1cc(C2CCN(CC(=O)NC(CO)CO)CC2)ccc1Nc1ncc2ccc(-c3ccccc3OC)n2n1 [Example 1279, N-(2-Hydroxy-1-hydroxymethyl-ethyl)-2-(4-{3-methoxy-4-[7-(2-methoxy-phenyl)-pyrrolo[2,1-f][1,2,4]triazin-2-ylamino]-phenyl}-piperidin-1-yl)-acetamide] | < 100 nM | 100 to 1000 nM |  | 
